# Read-outs that look alike come from different tables or passages of the source.
# Key:
# [1] = patients; cited from earlier work
# experimental tumors [2] = conditions: various kinds of tumors; cited from earlier work
# Leukemia L-1210 cells = assay: Antitumor activity on leukemia in CDF1 mice caused by Leukemia L-1210 cells (Test 1); conditions: for sign of toxicity: 2.5-5 mg/kg/day, in words
# Description: Antitumor activity on Leukemia in CDF1 mice caused by Leukemia L-1210 cells
# In this test, Compounds of formula (m) were assessed in comparison with daunomycin and adriamycin on their tumor inhibitory activity against leukemia in mice Thus, CDF1 mice were intraperitoneally transplanted with cells of Leukemia L-1210 (1×10^5 cells/mouse). From 24 hours after i.p. transplantation of L-1210 cells, each compound to be tested was administered intraperitoneally for 9 consecutive days at once per day. Observation was made for 60 days where survival days of each mouse tested were recorded, and percentage increase in life-span of the treated mice, in comparison with control test wherein mice were treated only with the administration of physiological saline, was calculated as T/C %, where T is the mean survival days of the treated animals and C is the mean survival days of the untreated control animals.
# Leukemia P 388 = conditions: cited from earlier work
# Leukemia L-1210 = conditions: 25 mg/kg, single dose per day, intraperitoneally for 9 days; cited from earlier work
# [3] = system: Micrococcus luteus ATCC 9341; assay: MIC by standard serial dilution method; format: cell-based; conditions: ATCC9341; Micrococcus luteus ATCC 9341 (MS-1)
# Text: (§1) Minimum inhibitory concentrations (MIC., mcg/ml) of the new compounds of formulae (h) and (i) against the growth of some species of bacteria have been determined according to a standard serial dilution method.
# [4] = system: Salmonella paratyphi 1015; assay: MIC by standard serial dilution method; format: cell-based; conditions: Salmonella enterica
# Text: as §1
# some species of bacteria = assay: Antibacterial activity; format: cell-based; conditions: for antibacterial activity compared with phenol: some species of bacteria; for antibacterial activity: in words
# [5] = system: Corynebacterium bovis 1810; assay: MIC by standard serial dilution method; format: cell-based
# Text: as §1
# experimental tumors [6] = assay: Animal tests on experimental tumors; format: in vivo; conditions: in words
# [7] = Stability of glycoside linkage against acid hydrolysis (Test 2); format: physicochemical; conditions: for acid hydrolysis, TLC result: 61°-62° C.; for acid hydrolysis: 60° C.; for stability of glycoside linkage against hydrolysis by acid: in words, no conditions
# Description: Daunomycin (1 mg) was dissolved in a mixture of (0.1 ml) of 0.2N*HCl-80% CH3 CN-H2 O (*the concentration of HCl being 0.2N in the whole mixture) and the solution was heated in oil bath at 61°-62° C. for 30 minutes to cause the hydrolysis. […] The reaction solution was allowed to stand at room temperature to deposit daunomycinone as red crystals.
# FTDM (0.7 mg) was suspended in a mixture (0.1 ml) of 0.2N HCl-80% CH3 CN-H2 O and suspension was stirred in an oil bath at 61°-62° C. for 30 minutes.
# [8] = in vivo; cited from earlier work
# [9] = 0.15 mg/kg/day, i.p., once per day for 9 days, 60 days observation
# [10] = 0.3 mg/kg/day, i.p., once per day for 9 days, 60 days observation
# [11] = 0.6 mg/kg/day, i.p., once per day for 9 days, 60 days observation
# [12] = 1.25 mg/kg/day, i.p., once per day for 9 days, 60 days observation
# [13] = 2.5 mg/kg/day, i.p., once per day for 9 days, 60 days observation
# [14] = 5 mg/kg/day, i.p., once per day for 9 days, 60 days observation
# [15] = 0.2N HCl-80% CH3 CN-H2 O, 30 minutes
compound,measurement,setting,value
"COc1cccc2c1C(=O)c1c(O)c3c(c(O)c1C2=O)C[C@@](O)(C(=O)CO)C[C@@H]3O[C@H]1C[C@H](N)[C@H](O)[C@H](C)O1 [Adriamycin, reference compound]",cardiac toxicity,[1],cardiac toxicity
same,decrease in the number of leukocytes,[1],decrease in the number of leukocytes
same,falling-off of the hair,[1],falling-off of the hair
same,antitumor activity,experimental tumors [2],fairly high antitumor activity against various kinds of tumors
same,% Increase in life-span (T/C),Leukemia L-1210 cells; [9],123%
same,% Increase in life-span (T/C),Leukemia L-1210 cells; [10],136%
same,% Increase in life-span (T/C),Leukemia L-1210 cells; [11],142%
same,% Increase in life-span (T/C),Leukemia L-1210 cells; [12],222%
same,% Increase in life-span (T/C),Leukemia L-1210 cells; [13],228%
same,% Increase in life-span (T/C),Leukemia L-1210 cells; [14],191%
same,sign of toxicity,Leukemia L-1210 cells,appearance of toxicity
"COc1cccc2c1C(=O)c1c(O)c3c(c(O)c1C2=O)C[C@@](O)(C(C)=O)C[C@@H]3O[C@@H]1O[C@@H](C)[C@@H](OC(C)=O)[C@@H](OC(C)=O)[C@H]1I [Compound NSC 327,472, 7-O-(3,4-di-O-acetyl-2,6-dideoxy-2-iodo-α-L-talohexopyranosyl)daunomycinone]",increase (%) of survival days,Leukemia P 388; 12.5 mg/kg to 25 mg/kg,172%
same,increase (%) of survival days,Leukemia P 388; 150 mg/kg,162%
"COc1cccc2c1C(=O)c1c(O)c3c(c(O)c1C2=O)C[C@@](O)(C(C)=O)C[C@@H]3O[C@@H]1O[C@@H](C)[C@H](OC(C)=O)[C@@H](OC(C)=O)[C@H]1I [Compound NSC 331,962, 7-O-(3,4-di-O-acetyl-2,6-dideoxy-2-iodo-α-L-manno-hexopyranosyl)daunomycinone]","increase (in %) of survival days (T/C, %)",Leukemia P 388; 50 mg/kg,247%
same,"increase (in %) of survival days (T/C, %)",Leukemia L-1210,196%
"CO[C@@H]1O[C@@H](C)[C@@H](O)[C@@H](O)[C@H]1F [Compound of formula (h), methyl 2,6-dideoxy-2-fluoro-α-L-talopyranoside]",MIC,[3],100 µg/mL
same,MIC,[4],100 µg/mL
same,antibacterial activity compared with phenol,some species of bacteria,higher antibacterial activity against some species of bacteria than that of phenol
"C[C@@H]1OC(O)[C@H](F)[C@H](O)[C@@H]1O (stereo partly drawn) [Compound of formula (i), 2,6-dideoxy-2-fluoro-α,β-L-talopyranose]",MIC,[5],100 µg/mL
same,MIC,[4],100 µg/mL
same,antibacterial activity,some species of bacteria,shows antibacterial activity
same,antibacterial activity compared with phenol,some species of bacteria,higher antibacterial activity against some species of bacteria than that of phenol
"COc1cccc2c1C(=O)c1c(O)c3c(c(O)c1C2=O)C[C@@](O)(C(C)=O)C[C@@H]3O[C@@H]1O[C@@H](C)[C@@H](O)[C@@H](O)[C@H]1F [Compound of formula (k), 7-O-(2,6-dideoxy-2-fluoro-α-L-talopyranosyl)daunomycinone]",antitumor activity,experimental tumors [6],excellent antitumor activities
same,toxicity,experimental tumors [6],low toxicities
same,"acid hydrolysis, TLC result",[7]; [15],presence of the spot of FTDM only
same,"acid hydrolysis, TLC result","[7]; 0.2N HCl-80% CH3 CN-H2 O, further 3 hours",the spot of FTDM only
same,acid hydrolysis,"[7]; 1N HCl in acetonitrile-water (4:1), 8 hours","remains substantially as it is, without being decomposed"
same,"acid hydrolysis, TLC result","[7]; 1N HCl overall, 8 hours","a spot of a trace amount of daumonycinone appeared, but most of FTDM was remaining at it was"
same,stability of glycoside linkage against hydrolysis by acid,[7],high stability against hydrolysis by acid
same,sign of toxicity,Leukemia L-1210 cells,no sign of toxicity
same,% Increase in life-span (T/C),"Leukemia L-1210 cells; ip, 0.15 mg/kg",105%
same,% Increase in life-span (T/C),"Leukemia L-1210 cells; ip, 0.3 mg/kg",105%
same,% Increase in life-span (T/C),"Leukemia L-1210 cells; ip, 0.6 mg/kg",125%
same,% Increase in life-span (T/C),"Leukemia L-1210 cells; ip, 1.25 mg/kg",171%
same,% Increase in life-span (T/C),"Leukemia L-1210 cells; ip, 2.5 mg/kg",217%
same,% Increase in life-span (T/C),"Leukemia L-1210 cells; ip, 5 mg/kg",184%
same,antibacterial activity,some species of bacteria,high antibacterial activities
"COc1cccc2c1C(=O)c1c(O)c3c(c(O)c1C2=O)C[C@@](O)(C(=O)CO)C[C@@H]3O[C@@H]1O[C@@H](C)[C@@H](O)[C@@H](O)[C@H]1F [Compound of formula (l), 7-O-(2,6-dideoxy-2-fluoro-α-L-talopyranosyl)adriamycinone]",antitumor activity,experimental tumors [6],excellent antitumor activities
same,toxicity,experimental tumors [6],low toxicities
same,stability of glycoside linkage against hydrolysis by acid,[7],high stability against hydrolysis by acid
same,sign of toxicity,Leukemia L-1210 cells,no sign of toxicity
same,% Increase in life-span (T/C),"Leukemia L-1210 cells; ip, 0.15 mg/kg",127%
same,% Increase in life-span (T/C),"Leukemia L-1210 cells; ip, 0.3 mg/kg",182%
same,% Increase in life-span (T/C),"Leukemia L-1210 cells; ip, 0.6 mg/kg",185%
same,% Increase in life-span (T/C),"Leukemia L-1210 cells; ip, 1.25 mg/kg",275%
same,% Increase in life-span (T/C),"Leukemia L-1210 cells; ip, 2.5 mg/kg",> 352%
same,% Increase in life-span (T/C),"Leukemia L-1210 cells; ip, 5 mg/kg",> 740%
same,antibacterial activity,some species of bacteria,high antibacterial activities
"COc1cccc2c1C(=O)c1c(O)c3c(c(O)c1C2=O)C[C@@](O)(C(C)=O)C[C@@H]3O[C@H]1C[C@H](N)[C@H](O)[C@H](C)O1 [Daunomycin, reference compound]",acid hydrolysis,"[7]; 0.2N HCl in acetonitrile-water (4:1), 30 minutes",completely decomposed
same,"acid hydrolysis, TLC result",[7]; [15],disappearance of the spot of daunomycin
same,antitumor activity,experimental tumors [2],fairly high antitumor activity against various kinds of tumors
same,% Increase in life-span (T/C),Leukemia L-1210 cells; [9],132%
same,% Increase in life-span (T/C),Leukemia L-1210 cells; [10],112%
same,% Increase in life-span (T/C),Leukemia L-1210 cells; [11],145%
same,% Increase in life-span (T/C),Leukemia L-1210 cells; [12],158%
same,% Increase in life-span (T/C),Leukemia L-1210 cells; [13],171%
same,% Increase in life-span (T/C),Leukemia L-1210 cells; [14],138%
COc1cccc2c1C(=O)c1c(O)c3c(c(O)c1C2=O)C[C@@](O)(C(=O)CO)C[C@@H]3O [adriamycinone],cardiac toxicity compared with daunomycin or adriamycin,[8],higher cardiac toxicity than the daunomycin or adriamycin itself
COc1cccc2c1C(=O)c1c(O)c3c(c(O)c1C2=O)C[C@@](O)(C(C)=O)C[C@@H]3O [daunomycinone],cardiac toxicity compared with daunomycin or adriamycin,[8],higher cardiac toxicity than the daunomycin or adriamycin itself
